Several values for one entry are separate records, joined by “and”; a condition that tells them apart may be missing. Equal values may be shown once.
Key:
Rattus norvegicus [1] = conditions: subchronic, oral, gavage, Fischer 344, Deaths + Body Weight Changes: decrease + Hematology: Hct increase, RBC increase, WBC increase, Hgb increase, Ret increase, Nucleated …
Rattus norvegicus [2] = conditions: M/F
Homo sapiens = conditions: clinical; duration: 60 minutes; inhalation; M/F; respiratory
Rattus norvegicus [3] = conditions: subchronic; duration: 13 weeks; inhalation; M/F; respiratory
Rattus norvegicus [4] = assay: FEL; higher = less toxic; conditions: chronic; oral; gavage; M/F; reduced survival
Canidae [5] = conditions: chronic; duration: 23 weeks; oral; gavage; Beagle
Cricetulus sp. = conditions: duration: 1 days, injection, Other
Monkey [6] = conditions: chronic, duration: 18 months
Mus musculus = conditions: for LD50: acute
Rattus norvegicus [7] = conditions: for LD50 / LC50: acute
Sus scrofa = conditions: chronic; duration: 123 days; dermal; Not specified
Rattus norvegicus [8] = assay: LC0; higher = less toxic; conditions: acute; inhalation; Sprague-Dawley
Gallus sp. = conditions: repeat dose other; oral
Rattus norvegicus [9] = conditions: repeat dose other; oral
Canidae [10] = conditions: subchronic; duration: 13 weeks; oral; capsule; M/F; Beagle; neurological
Rattus norvegicus [11] = assay: LC10; higher = less toxic; conditions: acute; inhalation; Sprague-Dawley
Monkey [12] = conditions: chronic; duration: 6 months; oral; diet; M/F; increased thyroid weight
Monkey [13] = conditions: chronic; duration: 6 months; oral; diet; Thyroid: Increased weight
[14] = subchronic, duration: 30 days, dermal, New Zealand
[15] = chronic, duration: 18 months, oral, gavage, Sprague-Dawley
[16] = subchronic, duration: 13 weeks, inhalation, Sprague-Dawley

Work on `C=CC=O` [Acrolein] yielded an NOEL (Rattus norvegicus [1]; F) of less than 0.75 mg/kg-day, an NOEL (Rattus norvegicus [1]; M) of 1.25 mg/kg-day and an NOAEL (Rattus norvegicus [2]; chronic, oral, gavage, reduced survival) of 0.05 mg/kg-day. It also gave an LOAEL (Rattus norvegicus [2]; subchronic, inhalation, nasal lesions) of 0.9 mg/m3, an LOAEL (Homo sapiens) of 0.688 mg/m3 and an LOAEL (Rattus norvegicus [3]) of 0.917 mg/m3. The FEL (Rattus norvegicus [4]) was 0.5 mg/kg-day.

`CS(C)=O` [Dimethyl sulfoxide] was tested, and the LOAEL (Canidae [5]) was 2500 mg/kg-day, the NOAEL (Cricetulus sp.; developmental, Intraperitoneal) was less than 5500 mg/kg-day and the NOAEL (Cricetulus sp.; developmental, intravenous, intraperitoneal) was 2500 mg/kg-day. The NOAEL (Cricetulus sp.; reproduction developmental, Intraperitoneal, F) was less than 5500 mg/kg-day, the NOAEL (Cricetulus sp.; reproduction developmental, intravenous, intraperitoneal, F) was 2500 mg/kg-day and the NOAEL (Monkey [6]; dermal) was 8910 mg/kg-day. It also gave an LOAEL (Monkey [6]; oral, gavage) of 8910 mg/kg-day, an NOAEL (Monkey [6]; oral, gavage) of 2970 mg/kg-day and an LD50 (Mus musculus; dermal) of 50000 mg/kg. For the same molecule, the LD50 (Mus musculus; injection, intravenous) was 3100 mg/kg and 5750 mg/kg, the LD50 (Mus musculus; oral) was ≥ 19200 mg/kg and ≤ 22000 mg/kg and the NOAEL (Mus musculus; developmental, duration: 7 days, oral, gavage, Swiss) was 12000 mg/kg-day. It also gave an LOAEL (Mus musculus; short-term, duration: 3 weeks, oral, gavage, Swiss) of 2000 mg/kg-day, an NOAEL (Mus musculus; subchronic, duration: 5 weeks, injection, Intraperitoneal, Swiss) of 2500 mg/kg-day and an LOAEL (Oryctolagus sp.; chronic, duration: 6 months, dermal, New Zealand) of 1650 mg/kg-day. It also gave an LOAEL (Oryctolagus sp.; chronic, duration: 22 weeks, dermal, New Zealand) of 1650 mg/kg-day, an NOAEL (Oryctolagus sp.; developmental, duration: 9 days, injection, subcutaneous) of 4000 mg/kg-day and an NOAEL (Oryctolagus sp.; developmental, duration: 9 days, oral, gavage) of 5000 mg/kg-day. For the same molecule, the NOAEL (Oryctolagus sp.; developmental, injection, subcutaneous) was 4000 mg/kg-day, the LOAEL (Oryctolagus sp.; [14]) was 5000 mg/kg-day and the NOAEL (Oryctolagus sp.; [14]) was 1000 mg/kg-day. For the same molecule, the NOAEL (Oryctolagus sp.; subchronic, duration: 90 days, dermal, New Zealand) was 2200 mg/kg-day, the LD50 (Rattus norvegicus [7]; dermal) was 40000 mg/kg and the LD50 (Rattus norvegicus [7]; injection, intravenous) was 5360 mg/kg. For the same molecule, the LD50 (Rattus norvegicus [7]; oral, gavage) was 28300 mg/kg, the LOAEL (Rattus norvegicus [7]; [15]) was 9900 mg/kg-day and the NOAEL (Rattus norvegicus [7]; [15]) was 1100 mg/kg-day. For the same molecule, the NOAEL (Rattus norvegicus [7]; developmental, duration: 1 days, injection, subcutaneous, Sprague-Dawley) was less than 10200 mg/kg-day, the NOAEL (Rattus norvegicus [7]; reproduction developmental, duration: 6 days, oral, gavage, Wistar, generation: F1) was 10000 mg/kg-day and the NOAEL (Rattus norvegicus [7]; reproduction developmental, duration: 10 days, injection, Intraperitoneal, F) was less than 2000 mg/kg-day. It also gave an NOAEL (Rattus norvegicus [7]; reproduction developmental, oral, gavage, Sprague-Dawley, generation: F0) of 5000 mg/kg-day, an NOAEL (Rattus norvegicus [7]; reproduction developmental, oral, gavage, Sprague-Dawley, generation: F1) of 5000 mg/kg-day and an NOAEC (Rattus norvegicus [7]; subchronic, duration: 6 weeks, inhalation, Sprague-Dawley) of 0.2 mg/L. The LOAEC (Rattus norvegicus [7]; [16]) was 2.78 mg/L, the NOAEC (Rattus norvegicus [7]; [16]) was 0.964 mg/L and the NOAEL (Sus scrofa) was 825 mg/kg-day. It also gave an LC0 (Rattus norvegicus [8]) greater than 2.9 mg/L.

Molecule `Clc1cc2oc3cc(Cl)c(Cl)cc3c2cc1Cl` [2,3,7,8-Tetrachlorodibenzofuran] has an LOAEL (Gallus sp.) of 1e-05 mg/kg-day and an NOAEL (Gallus sp.) of 1e-06 mg/kg-day.

In the case of `C=C1C(CCl)(CCl)C2(Cl)C(Cl)C(Cl)C1(Cl)C2(Cl)Cl` (stereo not drawn) [Toxaphene], the NOAEL (Rattus norvegicus [9]) is reported as 8 mg/kg-day and the NOAEL (Canidae [10]) is reported as 5 mg/kg-day.

For `CC(C)C#N` [2-Methylpropanenitrile], the LD50 (Oryctolagus sp.; acute, dermal, occlusive, New Zealand) was 239 mg/kg, the LC50 (Rattus norvegicus [7]; inhalation, Sprague-Dawley) was greater than 2830 mg/m3 and the LC50 (Rattus norvegicus [7]; inhalation, albino) was ≥ 1410 mg/m3 and ≤ 2830 mg/m3. The LD50 (Rattus norvegicus [7]; oral) was > 50 mg/kg and ≤ 100 mg/kg, the LD50 (Rattus norvegicus [7]; oral, gavage) was 77 mg/kg and the NOAEL (Rattus norvegicus [7]; reproduction developmental, duration: 6 days, inhalation, F, Sprague-Dawley) was 283 mg/m3. For the same molecule, the LC10 (Rattus norvegicus [11]) was 3320 mg/m3.

With `S=C([S-])NCCNC(=S)[S-].[Mn+2]` [Maneb] the LEL (Monkey [12]) was 15 mg/kg-day, the NOEL (Monkey [12]) was 5 mg/kg-day and the NOEL (Monkey [13]) was 5 mg/kg-day.
